# Data: US20190321355A1, “TREATMENT OF MENTAL, MOVEMENT AND BEHAVIORAL DISORDERS” (priority 2016, published 2019)
# Structures can show the parent of a compound that is named as a salt. Where two headings read alike, the source gives them in different places.
# How the values were obtained:
# C57BL/6JOlaHsd mice [1] = type: in vivo; settings: for DOI-induced repetitive head twitches: dose not given
# [2] = tested on: CB2 receptor knockout mice; experiment: DOI-induced head twitch response (HTR) in CB2 receptor knockout mice; type: in vivo
# Protocol: (§1) • 1. CB2 receptor selective ligands or CB2/SERM ligands were injected intraperitoneally or orally at doses of 0.001 to 100 mg/kg one to two hours before the injection of DOI. In order to test the effect of DOI on head twitch responses, ear scratch and grooming responses, DOI was intraperitoneally injected at a dose of 1 mg/kg.
# (§2) After DOI or saline injection, mice were placed in a transparent glass cage 30×40×31 cm divided into squares of 7.5×7.5 cm. Head twitch responses (HTRs) were manually counted by an observer. The HTR in mice is a distinctive behavior that cannot be misplaced with other head movements. After 5 min habitation to the cage the HTR were counted every 3 min for 15 min (a total of 20 min in the cage).
# (§3) With a view to further study the effect of the MH compositions on repetitive behavior, CB2 receptor knockout mice (The Jackson Laboratory) were intraperitoneally injected at age 3 weeks or 6 weeks with a single dose of MH at 0.2-50 mg/kg or equivalent vehicle. One hour later mice were intraperitoneally injected a single dose of 1 mg/kg DOI or saline. HTR responses, grooming and ESR responses in mice were recorded.
# as §3, with “HU-308” for “MH”, “6-21” for “6”, “responses” for “responses, grooming”
# C57BL/6JOlaHsd mice [3] = experiment: DOI-induced ear scratch response (ESR) / urge-like behavior; type: in vivo
# Protocol: as §1
# (§4) ESR behavior is a measure for urge-like behavior and often preceded HTRs. The ESR is a rapid scratching movement of the head, neck, ears, or other body surfaces by either hindlimbs. The number of ESRs was manually counted. Every ESR was also counted as a grooming. In some experiments, each ESR was considered as a separate episode if the animal moved. In some experiments, each ESR was considered as a separate episode for every ESR.
# as §3, with “In order” for “With a view”, “C57BL/6JOlaHsd” for “CB2 receptor knockout”, “mice” for “mice (The Jackson Laboratory)”, “responses” for “responses, grooming”
# Sabra mice = experiment: Ultrasonic vocals, SR141716A-induced vocal tic-like behavior; type: in vivo
# C57BL/6JOlaHsd mice [4] = experiment: Marble burying test (compulsive behavior); type: in vivo; settings: age 6 weeks, one hour after a single injection
# Protocol: Mice were habituated to the test room for 1 h. A mouse was injected with DOI as above and then placed in the experimental cage (white plastic 36×24.5 ×14.5 cm) filled with 5 cm sawdust for 5 min, in the absence of marbles. The mouse was taken out and twenty black glass were arranged 4 by 5 with 7 cm apart and 1 cm apart from the wells of the cage. Each mouse was tested for its marble burying activity for 30 min. Activity was videotaped with EthoVision and buried marbles were counted manually at the end of the experiment (after 30 min). A marble considered as buried when it was sawdust-covered by two third of its volume. Marbles that were moved were also counted.
# With a view to study the effect of the JTE-907 and M1 compositions on repetitive behavior, C57BL/6JOlaHsd mice were intraperitoneally injected at age 6 weeks with a single dose of JTE-907 at 0.2-50 mg/kg, M1 at 0.2-50 mg/kg or equivalent vehicle. The number of buried marbles in the burying marble test by each mouse was recorded.
# C57BL/6JOlaHsd mice [5] = experiment: Head twitch response after drug alone (saline instead of DOI); type: in vivo
# Protocol: as §2
# (§5) With a view to further study the effect of the MH compositions on repetitive behavior, C57BL/6JOlaHsd mice were intraperitoneally injected at age 3 weeks or 6 weeks with a single dose of MH at 0.2-50 mg/kg or equivalent vehicle. Optionally, one hour later mice received a single injection of saline (i.e. in the absence of DOI to test the effect of MH alone). HTR responses, ESR and grooming responses in mice were recorded.
# as §5, with “HU-308” for “MH”, “weeks” for “weeks or 6 weeks”, “vehicle” for “vehicle. Optionally,”, “responses and” for “responses,”, “ESR” for “ESR and grooming”
# C57BL/6JOlaHsd mice [6] = experiment: ESR/grooming (urge-like response) after drug alone; type: in vivo; settings: doses 1-20 mg/kg i.p., age 6 weeks, no DOI
# Source text: as §4
# Grooming behavior is a measure for anxiety. Grooming behavior in mice is characterized by licking its fur, groom with the forepaws, or scratch with any limb. Often the mouse will mix all of these grooming behaviors. The number of grooms was manually counted. In some experiments, each grooming behavior was considered as a separate episode if the animal moved its hindlimbs. In some experiments, each grooming behavior was considered as a separate episode for every grooming behavior.
# as §5
# CB2 receptor = CB2 receptor (Homo sapiens, UniProt P34972); settings: Schuehly et al. 2011; read-out: Ki, CB2 receptor ligand; cited from earlier work
# Chain of CB2 receptor (P34972 whole entry): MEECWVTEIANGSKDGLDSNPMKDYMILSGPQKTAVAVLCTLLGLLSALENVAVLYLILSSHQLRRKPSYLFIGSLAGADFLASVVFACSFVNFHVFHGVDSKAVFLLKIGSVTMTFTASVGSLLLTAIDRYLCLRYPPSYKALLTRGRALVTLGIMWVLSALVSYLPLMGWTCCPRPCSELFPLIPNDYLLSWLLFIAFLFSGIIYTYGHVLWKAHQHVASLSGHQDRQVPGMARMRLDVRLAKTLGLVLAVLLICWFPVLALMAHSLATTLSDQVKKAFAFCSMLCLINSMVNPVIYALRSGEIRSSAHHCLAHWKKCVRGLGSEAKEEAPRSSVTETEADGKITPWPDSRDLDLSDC
# [7] = 5 mg/kg during postnatal days 5-13; U.S. Pat. No. 9,486,419; cited from earlier work
# [8] = 10 mg/kg i.p. single dose, age 3 weeks, one hour before DOI 1 mg/kg i.p.
# [9] = 0.2 mg/kg i.p., age 3 weeks, one hour before DOI
# [10] = 5 mg/kg i.p., age 3 weeks, one hour before DOI 1 mg/kg
compound,measurement,setting,value
"COc1cc(CC(C)N)c(OC)cc1I.Cl (single isomer, unassigned; (-)) [DOI, (−)-1-(2,5-dimethoxy-4-iodophenyl)-2-aminopropane hydrochloride]","HTR frequency, model mice (DOI) vs control mice","C57BL/6JOlaHsd mice [1]; DOI 1 mg/kg i.p., age 3 weeks",increased
same,HTR frequency in CB2 receptor knockout mice after DOI,"[2]; DOI 1 mg/kg i.p., age 6 weeks",increased
same,"ESR frequency, DOI vs control mice",C57BL/6JOlaHsd mice [3]; DOI 1 mg/kg i.p.,increased
O=C(c1ccc(OCCN2CCCCC2)cc1)c1c(-c2ccc(O)cc2)sc2cc(O)ccc12 [raloxifene],DOI-induced HTR frequency,C57BL/6JOlaHsd mice [1]; [8],reduced
Cc1c(C(=O)NN2CCCCC2)nn(-c2ccc(Cl)cc2Cl)c1-c1ccc(Cl)cc1 [SR141716A],vocalization vs control litter mates,Sabra mice; administered to mice pups at the age of one to two days,higher level of vocalization and/or higher number of vocals
CCN(CC)CCOc1ccc(C(=C(Cl)c2ccccc2)c2ccccc2)cc1 [clomiphene citrate],DOI-induced HTR frequency,C57BL/6JOlaHsd mice [1]; [8],did not significantly reverse
"C=C1CC/C=C(\C)CC[C@@H]2[C@@H]1CC2(C)C [BCP, beta-caryophyllene]",DOI-induced repetitive head twitches,C57BL/6JOlaHsd mice [1],able to reduce
"CCCCCOc1c(OC)ccc2cc(C(=O)NCc3ccc4c(c3)OCO4)c(=O)[nH]c12 [JTE-907, N-(benzo[1,3]dioxol-5-ylmethyl)-7-methoxy-2-oxo-8-pentyloxy-1,2-dihydroquinoline-3-carboxamide]",DOI-induced HTR frequency,C57BL/6JOlaHsd mice [1]; [9],reduced
same,DOI-induced HTR frequency,C57BL/6JOlaHsd mice [1]; [10],reduced
same,number of buried marbles,C57BL/6JOlaHsd mice [4]; 5 mg/kg i.p.,reduced
"C=CCc1ccc(O)c(-c2ccc(OC)c(CC=C)c2)c1 [MH, 2-(4-Methoxy-3-prop-2-enylphenyl)-4-prop-2-enylphenol]",DOI-induced HTRs,"C57BL/6JOlaHsd mice [1]; 1 mg/kg i.p., age 3 weeks, one hour before DOI 1 mg/kg",reduced
same,DOI-induced HTRs,"C57BL/6JOlaHsd mice [1]; 1 mg/kg i.p., age 6 weeks, one hour before DOI 1 mg/kg",reduced
same,DOI-induced HTR frequency,"C57BL/6JOlaHsd mice [1]; 1 mg/kg oral (gavage) in self-emulsifying oral formulation, age 3 weeks, two hours before DOI 1 mg/kg i.p.",significantly reduced
same,DOI-induced HTR frequency,C57BL/6JOlaHsd mice [1]; [10],reduced
same,DOI-induced HTRs,"C57BL/6JOlaHsd mice [1]; 5 mg/kg i.p., age 6 weeks, one hour before DOI 1 mg/kg",reduced
same,DOI-induced HTR frequency,"C57BL/6JOlaHsd mice [1]; 5 mg/kg oral (gavage) in self-emulsifying oral formulation, age 3 weeks, two hours before DOI 1 mg/kg i.p.",significantly reduced
same,"effect to reverse DOI-induced HTR, age 3 weeks vs 6 weeks","C57BL/6JOlaHsd mice [1]; i.p., after 20 min from DOI injection",higher at age 3 weeks than 6 weeks
same,"effect on DOI-induced HTR frequency, 1 mg/kg vs 5 mg/kg","C57BL/6JOlaHsd mice [1]; oral formulation, age 3 weeks",greater than this of 5 mg/kg
same,DOI-induced HTR frequency in CB2 receptor knockout mice,"[2]; mouse, in vivo",did not reduce
same,frequency of DOI-induced ESR behavior,"C57BL/6JOlaHsd mice [3]; i.p., one hour before DOI 1 mg/kg",reduced
same,"HTR, drug alone","C57BL/6JOlaHsd mice [5]; doses 1-20 mg/kg i.p., age 6 weeks, no DOI",did not induce HTR at any dose
same,"urge-like response (grooming/ESR), drug alone",C57BL/6JOlaHsd mice [6],did not induce urge-like response at any dose
same,vocal tic-like behavior (number of ultrasonic vocal events),"Sabra mice; SR141716A 5 mg/kg s.c. postnatal day 1-3, drug s.c. at age 13 days, one hour before recording",significantly reduces
same,number of buried marbles,C57BL/6JOlaHsd mice [4]; 10 mg/kg i.p.,reduced
same,Ki,CB2 receptor,50 nM
"CCCCCCC(C)(C)c1cc(OC)c([C@@H]2C=C(CO)[C@@H]3C[C@H]2C3(C)C)c(OC)c1 [HU-308, [(1R,2R,5R)-2-[2,6-dimethoxy-4-(2-methyloctan-2-yl)phenyl]-7,7-dimethyl-4-bicyclo[3.1.1]hept-3-enyl] methanol]",DOI-induced HTR frequency,C57BL/6JOlaHsd mice [1]; [9],reduced
same,DOI-induced HTR frequency,C57BL/6JOlaHsd mice [1]; [10],reduced
same,DOI-induced repetitive head twitches,C57BL/6JOlaHsd mice [1],able to reduce
same,DOI-induced HTR frequency in CB2 receptor knockout mice,"[2]; 5 mg/kg i.p., male, age 6-21 weeks, DOI 1 mg/kg",significantly reduces
same,"repetitive behavior (HTR), drug alone","C57BL/6JOlaHsd mice [5]; 0.2 mg/kg i.p., age 3 weeks, saline instead of DOI",significantly increased
same,"motor tics/head twitches at the age of 12 weeks, open field test",[7],induce abnormal motor tics/head twitches
